Experimental data from patent US8618063B2, “Method for treating a synucleinopathy” (The Board of Trustees of the University of Illinois, priority 2008, dated 2013).

Experiments:
[1] = test system: Ala30Pro mutant α-synuclein induced failure of neurotransmission; test: Squid giant synapse: prevention of Ala30Pro α-synuclein induced failure of neurotransmission; format: cell-based; details: co-injection / coperfusion with Ala30Pro α-synuclein
Procedure: (§1) If they both work by activating PKC and increasing retrograde transport, they might affect availability of synaptic vesicle components in presynaptic terminals. Accordingly, either wild-type α-synuclein, Ala30Pro α-synuclein, or MPP+ were injected into the presynaptic side of the squid giant synapse as described for synaptic vesicles and synapsin (McGuinness, et al. (1989) J. Neurosci. 9:4138-4149; Llinas, et al. (1989) Proc. Nat. Acad. Sci. USA 86:5656-5660). This preparation has been used to evaluate the effects of reagents on presynaptic function by injecting, then stimulating the presynaptic side while recording intracellularly on both pre- and post-synaptic sides (Llinas, et al. (2004) Proc. Natl. Acad. Sci. USA 101:17855-60; Sugimori, et al. (1998) Neuroscience 86:39-51).

DIC phosphorylation = test: Labeling studies with MPP+ treated cortical neurons; format: cell-based
Procedure: One mCi ^32P phosphate (ICN) was added per dish and incubated for 4 hours. Medium was discarded, cells homogenized in 1 ml of ROLB buffer and processed accordingly to standard methods (Morfini, et al. (2004) supra). Axoplasms were prepared as for video microscopy, but 1 mCi of γ-^32P-ATP was added. After 50 minutes incubation, axoplasms were homogenized in ROLB buffer. A 10 μl aliquot of lysate was precipitated with 15% TCA and radioactivity incorporated into protein determined by scintillation counting. Aliquots of equal counts were used for kinesin immunoprecipitation with 10 μg of 74.1 antibody and Protein G-agarose beads (Pierce). Immunoprecipitates were separated by SDS-PAGE, dried and exposed in a PHOSPHORIMAGER cassette, then scanned and quantified on a TYPHOON (Amersham/Molecular Dynamics).
(§2) MPTP/MPP+ is the best characterized example of toxin-induced Parkinson's disease. The effects of MPP+ on fast axonal transport were examined in axoplasm as was dynein phosphorylation in cells. […] Based on reports that MPP+ could activate caspase3 (Turmel, et al. (2001) Mov. Disord. 16:185-9) and that caspase3 can activate a PKC by proteolytic cleavage (Kaul, et al. (2003) Eur. J. Neurosci. 18:1387-401), the ability of a caspase3 inhibitor to block effects of MPP+ on fast axonal transport was evaluated. […] Further, perfusion with Caspase 3 affected retrograde transport in a manner similar to PKC and MPP+ (retrograde transport=1.462±0.016 μm/sec).

[2] = test system: MPP+ effects on fast axonal transport; test: Isolated axoplasm: blocking of MPP+ effects on fast axonal transport; format: cell-based, squid Loligo pealeii; details: for blocking of MPP+ effects on fast axonal transport: FIG. 5B
Procedure: (§3) Axoplasm was extruded from giant axons of the squid Loligo pealeii (Marine Biological Laboratory) according to established methods (Brady, et al. (1985) Cell Motil. 5(2):81-101). Axons were 400-600 μm in diameter and provided ≈5 μl of axoplasm per axon. Wild-type α-synuclein or α-synuclein with point mutations associated with familial Parkinson's disease (Ala30Pro or Ala53Thr), MPP+, enzymes or inhibitors were diluted into X/2 buffer (175 mM potassium aspartate, 65 mM taurine, 35 mM betaine, 25 mM glycine, 10 mM HEPES, 6.5 mM MgCl2, 5 mM EGTA, 1.5 mM CaCl2, 0.5 mM glucose, pH 7.2) supplemented with 2-5 mM ATP and 20 μl of this mix was added to perfusion chambers (Brady, et al. (1985) supra). Preparations were analyzed on a ZEISS AXIOMAT with a 100×, 1.3 na objective, and DIC optics. Hamamatsu Argus 20 and Model 2400 CCD camera were used for image processing and analysis. Organelle velocities were measured with a Photonics Microscopy C2117 video manipulator (Hamamatsu).
as §2

[3] = test system: α-synuclein mutant Ala30Pro effects on fast axonal transport; test: Isolated axoplasm: blocking of mutant α-synuclein (Ala30Pro) effects on fast axonal transport; format: cell-based, squid Loligo pealeii; details: coperfused with α-synuclein mutant Ala30Pro, FIG. 3
Procedure: as §3
Accordingly, these inhibitors were coperfused with pathological α-synuclein mutant Ala30Pro and fast axonal transport was monitored. […] Similarly, the effects of α-synuclein mutant Ala30Pro could be blocked by a PKCmu peptide substrate (FIG. 3B) and an inhibitor of Src-Family Tyrosine Kinases (PP2) (FIG. 3C).

[4] = test system: MPP+ induced failure of neurotransmission; test: Squid giant synapse: prevention of MPP+ induced failure of neurotransmission; format: cell-based; details: co-injection with MPP+
Procedure: as §1

[5] = test system: neurotransmission at squid giant synapse; test: Squid giant synapse: neurotransmission after presynaptic injection; format: cell-based; details: injected into presynaptic side of squid giant synapse; observed up to 90 minutes
Procedure: as §1

PKC = PKC activity in axoplasm; format: biochemical, squid
Procedure: In the analysis disclosed herein, 3-4 axoplasms were triturated in KB buffer (10 mM HEPES, pH 7.4, 10 mM MgCl2, 1 mM DTT) and aliquoted. Individual reactions with corresponding in vitro translated AR constructs were started by adding radiolabeled ATP to 100 μM. Reactions were performed in 50 μl, incubated for 20 minutes at room temperature and stopped with 50 μl of 2× sample buffer. Lysates were separated by SDS-PAGE and analyzed by autoradiography.

fast axonal transport = test: Motility studies in isolated axoplasm: effect of perfused substance on fast axonal transport; format: cell-based, squid Loligo pealeii; details: substance perfused alone into isolated axoplasm
Procedure: as §3

Row | Structure (SMILES) | prevention of Ala30Pro α-synuclein effect on neurotransmission [1] | blocking of MPP+ induced increase in DIC phosphorylation (DIC phosphorylation; MPP+ treated cortical neurons) | blocking of MPP+ effects on fast axonal transport [2] | blocking of MPP+ effects on fast axonal transport ([2]; listed as caspase3 inhibitor II) | anterograde transport rate in presence of MPP+ and inhibitor ([2]; coperfused with MPP+) | retrograde transport rate in presence of MPP+ and inhibitor ([2]; coperfused with MPP+) | blocking of familial Parkinson's disease mutant α-synuclein (Ala30Pro) effects on fast axonal transport ([3]; listed as Caspase inhibitor) | blocking of familial Parkinson's disease mutant α-synuclein (Ala30Pro) effects on fast axonal transport ([3]; listed as inhibitors of Caspase 3) | prevention of MPP+ induced failure of neurotransmission [4] | effect on neurotransmission, in words [5] | DIC phosphorylation (DIC phosphorylation; cortical neurons treated with substance alone) | PKC activity in axoplasm (PKC) | retrograde transport rate (fast axonal transport; controls 1.2 μm/sec) | anterograde transport rate (fast axonal transport; controls 1.6 μm/sec)
1 | COC(=O)CC[C@H](NC(=O)[C@H](CC(=O)OC)NC(=O)OCc1ccccc1)C(=O)N[C@H](C(=O)N[C@@H](CC(=O)OC)C(=O)CF)C(C)C [Caspase3 Inhibitor II] | not effective | blocked | completely block | blocked | 1.527±0.019 μm/sec | 1.187±0.019 μm/sec | ineffective | not effective | prevented | – | – | – | – | –
2 | C[n+]1ccc(-c2ccccc2)cc1 [MPP+] | – | – | – | – | – | – | – | – | – | failure of neurotransmission | increased DIC phosphorylation | activated PKC activity | 1.461±0.023 μm/sec | 1.272±0.0032 μm/sec
